The target in the experiment is T1, human GPR40 (Homo sapiens, UniProt O14842).
T1 construct: expressed in transfected cells; host or cells: CHO cells, transient co-transfection with Aequorin expression vector (Euroscreen)
The experiment in a line: Cell-based aequorin assay using human GPR40. As to conditions: activation of human GPR40; CHO cells transfected with GPR40 and Aequorin expression vectors; aequorin luminescence, area-under-curve 2-20 seconds; 0.01% BSA or 0.625% HSA; read-out: Relative EC50. As for the experimental part: A cell-based aequorin assay may be employed to characterize the modulatory activity of compounds on the GPR40 signaling pathway. In an exemplary assay, CHO cells are transfected in a 15 cm plated containing 14 million cells with 5 μg of GPR40 expression vector and 5 μg of Aequorin expression vector (Euroscreen) using Lipofectamine 2000 (Invitrogen). […] Trypsinization is halted with 28 mL of Hanks Buffered Salt Solution containing 20 mM Hepes (H/HBSS) and 0.01% fatty acid-free bovine serum albumin (BSA) or 0.625% fatty acid-free human serum albumin (HSA). […] Cells are gently mixed every 15 minutes. Compounds are dissolved in dimethyl sulfoxide for preparation of 10 mM stock solutions. Compounds are diluted in H/HBSS containing either 0.01% BSA or 0.625% HSA. Serial dilutions of the test compounds are prepared to determine dose response.
Aequorin luminescence measurements are made using an EG&G Berthold 96-well luminometer and the response is measured over a 20 second interval after cells and compounds were mixed. […] The EC50 (effective concentration to reach 50% maximal response) is determined from the dose response plot. […]

SMILES strings stand for the structures.

For 1 compound, EC50 results are on record in patent US20070142384A1, “Compounds, pharmaceutical compositions and methods for use in treating metabolic disorders” (AMGEN INC., priority 2004, published 2007).

T1 sequence (O14842 whole entry): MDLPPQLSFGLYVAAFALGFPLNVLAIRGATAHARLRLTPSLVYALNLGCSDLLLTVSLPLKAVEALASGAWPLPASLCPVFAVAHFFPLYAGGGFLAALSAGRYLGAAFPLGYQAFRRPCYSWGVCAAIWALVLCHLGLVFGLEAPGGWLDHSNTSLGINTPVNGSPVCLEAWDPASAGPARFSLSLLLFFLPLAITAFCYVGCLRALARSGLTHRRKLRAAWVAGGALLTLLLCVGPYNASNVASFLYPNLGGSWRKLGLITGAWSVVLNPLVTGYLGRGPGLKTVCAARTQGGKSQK

As to `O=C(O)CC(c1ccc(OCc2cccc(-c3ccc(C(F)(F)F)cc3)c2)cc1)C1CC1` (stereo not shown) [Compound 91], the half-maximal effective concentration (EC50) (commonly the concentration needed to bring the measured effect to its halfway point) fell in the range of 1 to 10 µM.
